Measured values: PubChem BioAssay (NCI)
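How tested: cells in 96-well plates exposed to compound for 48 hours at five concentrations. GI50 = concentration required for 50% inhibition of growth. The concentration for full growth arrest is given as TGI.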 *1 amine or outer side, *2 acyl side, *3 side chain or, on linkers, in order; H or OH if unused. Where a SMILES comes first, the peptide text is derived from it. Bridges are numbered along the chain shown (N, C = ends). Roman numbers before positions name the chains, in order. [ ]: non-standard residue; d: D form. Actinocin(9to1) = Cc1c2oc3c(C)ccc(C(=O)[*:1])c3nc-2c(C(=O)[*:2])c(N)c1=O; NMeV = CN[CH](C(=O)O)C(C)C; Sar = CNCC(=O)O

How the values were obtained:
Assay in all cases: NCI tumour cell line growth inhibition, 48 h
[1] = tested on: 786-0 renal
[2] = tested on: A549 NSCLC
[3] = tested on: BT-549 breast
[4] = tested on: EKVX NSCLC
[5] = tested on: HCC-2998 colon
[6] = tested on: HCT-116 colon
[7] = tested on: HCT-15 colon
[8] = tested on: HL-60(TB) leukemia
[9] = tested on: HOP-62 NSCLC
[10] = tested on: HT29 colon
[11] = tested on: LOX IMVI melanoma
[12] = tested on: MDA-MB-435
[13] = tested on: NCI-H460 lung
[14] = tested on: PC-3 prostate
[15] = tested on: SN12C renal
[16] = tested on: U251 CNS
[17] = tested on: UACC-257 melanoma
[18] = tested on: SR leukemia

Row | Structure (SMILES) | TGI [1] | TGI [2] | TGI [3] | TGI [4] | TGI [5] | TGI [6] | TGI [7] | TGI [8] | TGI [9] | TGI [10] | TGI [11] | TGI [12] | TGI [13] | TGI [14] | TGI [15] | TGI [16] | TGI [17] | TGI [18] | GI50 [8]
1 | COc1ccc2oc3c(C)cc4c(OC)nnc(OC)c4c3c2c1 | > 100 µM | > 100 µM | > 100 µM | > 100 µM | > 100 µM | 6.55 µM | 63.9 µM | > 100 µM | > 100 µM | > 100 µM | > 100 µM | > 100 µM | > 100 µM | > 100 µM | > 100 µM | 14.8 µM | > 100 µM | – | –
2 | COc1cc2c(/C=C3/C(=O)Nc4cccc(Cl)c43)c(Cl)[nH]c2cc1C | 4.15 µM | 6.23 µM | 3.67 µM | – | – | 3.19 µM | 4.29 µM | 4.56 µM | 10.2 µM | 3.96 µM | 3.68 µM | 3.44 µM | 3.78 µM | 11.8 µM | 3.33 µM | 3.99 µM | 10.2 µM | 2.95 µM | –
3 | COc1cc(S(=O)(=O)Nc2ccc(-c3csc(N4C(=O)CSC4c4cccc(Oc5ccccc5)c4)n3)cc2)ccc1Cl (stereo unspecified) | > 100 µM | – | > 100 µM | > 100 µM | – | > 100 µM | > 100 µM | 48.9 µM | > 100 µM | > 100 µM | > 100 µM | > 100 µM | – | > 100 µM | > 100 µM | – | – | > 100 µM | –
4 | O=c1[nH]c(=O)n(C2COC(CO)C2O)cc1F (stereo unspecified) | > 100 µM | > 100 µM | > 100 µM | > 100 µM | > 100 µM | > 100 µM | > 100 µM | – | > 100 µM | > 100 µM | > 100 µM | > 100 µM | > 100 µM | > 100 µM | > 100 µM | > 100 µM | > 100 µM | > 100 µM | –
5 | O=S(=O)(O)c1cc(N=Nc2c(O)ccc3ccccc23)cc2c(S(=O)(=O)O)cccc12 | > 100 µM | > 100 µM | > 100 µM | > 100 µM | > 100 µM | > 100 µM | > 100 µM | > 100 µM | > 100 µM | > 100 µM | – | > 100 µM | > 100 µM | > 100 µM | – | > 100 µM | > 100 µM | > 100 µM | –
6 | Cc1ccc2nc(-c3ccccc3)cc(=O)n2c1 | > 100 µM | > 100 µM | > 100 µM | > 100 µM | > 100 µM | > 100 µM | > 100 µM | > 100 µM | > 100 µM | > 100 µM | – | > 100 µM | > 100 µM | > 100 µM | > 100 µM | > 100 µM | – | > 100 µM | –
7 | Cc1cc(OC(=O)Nc2cccc3ccccc23)c(C(C)C)cc1C(=S)Nc1ccccc1 | 56.6 µM | > 100 µM | 32.1 µM | 61.6 µM | 38.8 µM | 32.4 µM | 29.2 µM | 15.1 µM | 34.9 µM | 35.8 µM | 28.7 µM | 33.5 µM | 47.1 µM | 42.2 µM | – | 35.4 µM | 50.5 µM | 33.5 µM | –
8 | CON(C)C(=O)C(C)N(Cc1ccccc1)Cc1ccccc1 (stereo unspecified) | > 100 µM | > 100 µM | > 100 µM | > 100 µM | > 100 µM | > 100 µM | > 100 µM | > 100 µM | > 100 µM | > 100 µM | – | > 100 µM | > 100 µM | > 100 µM | – | > 100 µM | > 100 µM | > 100 µM | –
9 | Cc1c2oc3c(C)ccc(C(=O)NC4C(=O)NC(C(C)C)C(=O)N5CCCC5C(=O)N(C)CC(=O)N(C)C(C(C)C)C(=O)OC4C)c3nc-2c(C(=O)NC2C(=O)NC(C(C)C)C(=O)N3CCCC3C(=O)N(C)CC(=O)N(C)C(C(C)C)C(=O)OC2C)c(N)c1=O (stereo unspecified) (I: TVP[Sar][NMeV] / II: TVP[Sar][NMeV]; ester I:1-I:C, II:1-II:C; linker I:N-II:N via Actinocin(9to1); configuration not given here) | > 1 µM | > 0.867 µM | 0.0292 µM | > 0.779 µM | 0.0272 µM | > 1 µM | > 1 µM | 0.0237 µM | 0.00696 µM | 0.00207 µM | – | 0.0125 µM | 0.00126 µM | 0.0317 µM | 0.0379 µM | – | 0.0231 µM | – | 0.000288 µM
10 | COC(=O)[C@]1(C)CCC[C@@]2(C)C1CC[C@@]13C=C(C(C)C)[C@@H](CC1=O)CC23 (stereo partly specified) | 60.7 µM | > 100 µM | 63.4 µM | 71.6 µM | > 100 µM | 42 µM | 45.4 µM | 36.4 µM | 83.9 µM | 40.5 µM | – | > 100 µM | > 100 µM | > 100 µM | 41.2 µM | 39.2 µM | 62.4 µM | 30.9 µM | –
11 | CSC(=O)c1sc(SC)[n+](-c2ccccc2)c1O | 32.7 µM | > 100 µM | 29.4 µM | – | 44.8 µM | 32.6 µM | 54.3 µM | – | 32.1 µM | 46.5 µM | 44.8 µM | 35.5 µM | 86.3 µM | 29.8 µM | 38.8 µM | 30.1 µM | – | > 100 µM | –
12 | CCOC(=O)c1nnn(CCCCO)c1C(=O)OCC | > 100 µM | > 100 µM | > 100 µM | > 100 µM | > 100 µM | > 100 µM | > 100 µM | – | > 100 µM | > 100 µM | > 100 µM | > 100 µM | > 100 µM | > 100 µM | > 100 µM | > 100 µM | > 100 µM | > 100 µM | –
13 | C=C1c2nc3ccccc3n2C=C(c2ccc(OC)cc2)N1c1ccc(OC)cc1 | > 100 µM | > 100 µM | 39.8 µM | > 100 µM | > 100 µM | 74.4 µM | > 100 µM | > 100 µM | – | – | > 100 µM | > 100 µM | > 100 µM | > 100 µM | 59 µM | 28.4 µM | > 100 µM | > 100 µM | –
14 | C[N+]12C=CC=C1C(N1CCCC1)c1scc(-c3ccc(Br)cc3)c12 (stereo unspecified) | > 100 µM | > 100 µM | 17.7 µM | > 100 µM | 39.9 µM | > 100 µM | > 100 µM | – | 98.2 µM | > 100 µM | > 100 µM | 76.9 µM | > 84.7 µM | 99.2 µM | > 35.7 µM | 24.7 µM | > 51.9 µM | 35.5 µM | –
